Bridge positions count the residues as written; N and C are the ends. Square brackets hold non-standard residues; d marks the D form. Peptide text beside a SMILES is read from it. * marks the point of attachment. Pro(5R-Ph) = O=C(O)[C@@H]1CC[C@H](c2ccccc2)N1; Benzoyl(4-CF3) = O=C(c1ccc(C(F)(F)F)cc1)*; N(CH2CH2COOH)Gly = O=C(O)CCNCC(=O)O; Hydrocinnamoyl = O=C(CCc1ccccc1)*; dPen = CC(C)(S)[C@@H](N)C(=O)O; Agp = N=C(N)NC[C@H](N)C(=O)O; Nicotinoyl = O=C(c1cccnc1)*; Carboxymethyl = O=C(O)C*; X4 = O=C(c1ccc(Br)o1)*; X3 = Cc1nc(C(=O)*)cs1; βAla = NCCC(=O)O; Sar = CNCC(=O)O
Molecular target: αvβ3 integrin (Homo sapiens, UniProt P05106+P06756)
Sequence (P06756 31-889 limits assumed): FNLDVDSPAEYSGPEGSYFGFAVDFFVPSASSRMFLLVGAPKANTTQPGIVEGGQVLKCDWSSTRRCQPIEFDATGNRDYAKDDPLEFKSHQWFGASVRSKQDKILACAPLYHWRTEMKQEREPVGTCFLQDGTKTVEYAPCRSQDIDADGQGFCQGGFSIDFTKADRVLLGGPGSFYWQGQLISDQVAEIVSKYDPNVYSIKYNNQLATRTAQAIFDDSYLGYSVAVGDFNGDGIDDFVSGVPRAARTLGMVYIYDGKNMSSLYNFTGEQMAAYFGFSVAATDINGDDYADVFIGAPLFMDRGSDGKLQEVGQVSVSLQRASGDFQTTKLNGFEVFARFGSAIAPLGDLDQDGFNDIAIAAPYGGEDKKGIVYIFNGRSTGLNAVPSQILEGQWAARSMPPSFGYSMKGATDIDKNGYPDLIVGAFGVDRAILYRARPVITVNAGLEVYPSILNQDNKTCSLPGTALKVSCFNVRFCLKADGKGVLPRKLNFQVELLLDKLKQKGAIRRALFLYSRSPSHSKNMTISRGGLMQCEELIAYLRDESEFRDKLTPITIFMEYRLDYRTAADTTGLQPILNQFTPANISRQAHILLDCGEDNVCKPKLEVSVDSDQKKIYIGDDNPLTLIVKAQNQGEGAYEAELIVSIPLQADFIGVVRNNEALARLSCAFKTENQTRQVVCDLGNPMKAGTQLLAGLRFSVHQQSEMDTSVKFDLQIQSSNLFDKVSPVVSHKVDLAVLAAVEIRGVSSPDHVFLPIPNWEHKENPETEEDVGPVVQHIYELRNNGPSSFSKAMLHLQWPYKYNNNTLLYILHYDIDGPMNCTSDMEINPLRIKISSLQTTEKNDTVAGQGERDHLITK
Sequence (P06756 891-1048 partner limits assumed): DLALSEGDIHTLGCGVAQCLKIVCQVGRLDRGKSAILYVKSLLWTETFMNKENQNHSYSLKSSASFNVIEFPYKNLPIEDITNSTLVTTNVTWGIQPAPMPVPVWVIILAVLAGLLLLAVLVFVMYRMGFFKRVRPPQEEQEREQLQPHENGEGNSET
Sequence (P05106 27-788): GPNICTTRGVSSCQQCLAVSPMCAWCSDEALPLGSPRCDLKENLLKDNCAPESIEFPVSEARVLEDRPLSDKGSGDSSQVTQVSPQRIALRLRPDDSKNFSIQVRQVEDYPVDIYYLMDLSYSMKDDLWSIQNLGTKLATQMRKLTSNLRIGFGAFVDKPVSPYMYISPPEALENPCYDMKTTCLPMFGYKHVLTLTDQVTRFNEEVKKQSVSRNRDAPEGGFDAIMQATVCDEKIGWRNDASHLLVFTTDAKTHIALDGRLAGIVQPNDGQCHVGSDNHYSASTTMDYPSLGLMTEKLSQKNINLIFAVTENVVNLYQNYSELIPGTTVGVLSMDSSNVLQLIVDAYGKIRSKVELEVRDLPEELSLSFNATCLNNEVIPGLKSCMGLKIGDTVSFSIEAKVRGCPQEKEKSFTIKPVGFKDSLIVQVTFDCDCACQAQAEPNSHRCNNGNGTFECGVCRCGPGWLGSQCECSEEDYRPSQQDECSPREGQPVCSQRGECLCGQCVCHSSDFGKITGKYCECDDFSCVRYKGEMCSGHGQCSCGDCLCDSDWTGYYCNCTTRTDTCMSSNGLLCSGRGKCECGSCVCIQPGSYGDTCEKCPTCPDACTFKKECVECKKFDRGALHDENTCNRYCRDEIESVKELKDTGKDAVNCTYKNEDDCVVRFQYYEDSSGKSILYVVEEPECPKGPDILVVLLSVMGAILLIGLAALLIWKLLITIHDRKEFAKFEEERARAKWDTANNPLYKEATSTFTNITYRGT
Assay: Inhibition of biotinylated LXW7 binding to αvβ3-K562 cells (flow cytometry)
Parameters: expressed in transfected cells; host or cells: K562 (gift of Dr. Yoshikazu Takada, UC Davis)
Conditions: LXW9-92: inhibiting the binding of biotinylated LXW7 against αvβ3-K562 cells
Protocol: The apparent IC50 were calculated using Graph Prism software (≦www.graphpad.com≧).
The samples were analyzed with Coulter XL-MCL flow cytometry. The histogram and mean fluorescence intensity (MFI) were determined. The apparent Kd, IC50 were calculated using Graph Prism software (≦www.graphpad.com≧).

IC50 (class symbols) [µM] | IC50 (LXW7 as internal reference) [µM] | Structure (SMILES)
1 to 10 |  | CC(C)[C@H]1NC(=O)[C@@H](CC(=O)O)NC(=O)[C@H](CC(=O)O)NC(=O)CNC(=O)[C@H](CCCNC(=N)N)NC(=O)CNC(=O)[C@H](NC(=O)c2ccc(Br)o2)CSSC[C@H](C(N)=O)NC1=O [LXW90, 5-bromo-2-furoyl-cGRGDdvc] (X4-[dC]GRGD[dD][dV][dC]-NH2; disulfide 1-8)
< 1 |  | N=C(N)NCCC[C@@H]1NC(=O)CNC(=O)[C@H](N)CSSC[C@H](C(N)=O)NC(=O)[C@@H](Cc2c[nH]c3ccccc23)NC(=O)[C@@H](CC(=O)O)NC(=O)[C@H](CC(=O)O)NC(=O)CNC1=O [LXW68, cGRGDdwc] (H-[dC]GRGD[dD][dW][dC]-NH2; disulfide 1-8)
1 to 10 |  | CC(C)[C@H]1NC(=O)[C@@H](CC(=O)O)NC(=O)[C@H](CC(=O)O)NC(=O)CNC(=O)[C@H](CCCNC(=N)N)NC(=O)CNC(=O)[C@H](NC(=O)c2cccnc2)CSSC[C@H](C(N)=O)NC1=O [LXW92, nicotinyl-cGRGDdvc] (Nicotinoyl-[dC]GRGD[dD][dV][dC]-NH2; disulfide 1-8)
1 to 10 |  | N=C(N)NCCC[C@@H]1NC(=O)CNC(=O)[C@H](N)CSSC[C@H](C(N)=O)NC(=O)[C@@H]2CC[C@H](c3ccccc3)N2C(=O)[C@@H](CCC(=O)O)NC(=O)[C@H](CC(=O)O)NC(=O)CNC1=O [LXW71, cGRGDe-Ppca-c] (H-[dC]GRGD[dE][Pro(5R-Ph)][dC]-NH2; disulfide 1-8)
< 1 |  | CC(C)[C@H]1NC(=O)[C@@H](CC(=O)O)NC(=O)[C@H](CC(=O)O)NC(=O)CNC(=O)[C@H](CCCNC(=N)N)NC(=O)CNC(=O)[C@H](NC(=O)c2ccc(C(F)(F)F)cc2)CSSC[C@H](C(N)=O)NC1=O [LXW85, 4-(trifluoromethyl)benzoyl-cGRGDdvc] ({Benzoyl(4-CF3)}-[dC]GRGD[dD][dV][dC]-NH2; disulfide 1-8)
< 1 |  | CC(C)[C@H]1NC(=O)[C@@H](CC(=O)O)NC(=O)[C@H](CC(=O)O)NC(=O)CNC(=O)[C@H](CCCNC(=N)N)NC(=O)CNC(=O)[C@H](NC(=O)CCc2ccccc2)CSSC[C@H](C(N)=O)NC1=O [LXW80, 3-phenyl propionyl-cGRGDdvc] (Hydrocinnamoyl-[dC]GRGD[dD][dV][dC]-NH2; disulfide 1-8)
 | > 20 | CN1CC(=O)N[C@@H](CCCNC(=N)N)C(=O)NCC(=O)N[C@@H](CC(=O)O)C(=O)N[C@H](CC(=O)O)C(=O)NC2(CCOCC2)C(=O)N[C@H](C(N)=O)CSSC[C@@H](N)C1=O [LXY38, c-Sar-RGDd-Actp-C]
< 1 |  | Cc1nc(C(=O)N[C@@H]2CSSC[C@H](C(N)=O)NC(=O)[C@@H](C(C)C)NC(=O)[C@@H](CC(=O)O)NC(=O)[C@H](CC(=O)O)NC(=O)CNC(=O)[C@H](CCCNC(=N)N)NC(=O)CNC2=O)cs1 [LXW86, 2-Methylthiazole-4-carbonyl-cGRGDdvc] (X3-[dC]GRGD[dD][dV][dC]-NH2; disulfide 1-8)
< 1 |  | N=C(N)NCCC[C@@H]1NC(=O)CNC(=O)[C@H](N)CSSC[C@H](C(N)=O)NC(=O)[C@@H](Cc2ccsc2)NC(=O)[C@@H](CC(=O)O)NC(=O)[C@H](CC(=O)O)NC(=O)CNC1=O [LXW66, cGRGDd-D3Thi-c]

Further lines, the compound ahead of its results:

Structure (SMILES) | IC50 (class symbols) [µM] | IC50 (LXW7 as internal reference) [µM]
CC(C)[C@H]1NC(=O)[C@@H](CC(=O)O)NC(=O)[C@H](CCC(=O)O)NC(=O)CNC(=O)[C@H](CNC(=N)N)NC(=O)CNC(=O)[C@H](N)CSSC[C@H](C(N)=O)NC1=O [LXW59, cG-Agp-GEdvc] (H-[dC]G[Agp]GE[dD][dV][dC]-NH2; disulfide 1-8) |  | > 20
CC(C)[C@H]1NC(=O)[C@@H](CC(=O)O)NC(=O)[C@H](CC(=O)O)NC(=O)CNC(=O)[C@H](CCCNC(=N)N)NC(=O)CNC(=O)[C@@H](N)CSSC[C@H](C(N)=O)NC1=O [LXW9, CGRGDdvc] (H-CGRGD[dD][dV][dC]-NH2; disulfide 1-8) | 1 to 10 | 
CN1CC(=O)N[C@@H](CCCNC(=N)N)C(=O)NCC(=O)N[C@@H](CC(=O)O)C(=O)N[C@@H](Cc2ccc(OCC(=O)O)cc2)C(=O)N[C@H](CC(=O)O)C(=O)N[C@H](C(N)=O)CSSC[C@H](N)C1=O [LXW44, C-Sar-RGD-Bmp-dC] (H-C[Sar]RGDY(Carboxymethyl)[dD]C-NH2; disulfide 1-8) |  | > 20
C=CC[C@H]1NC(=O)[C@@H](CC(=O)O)NC(=O)[C@H](CC(=O)O)NC(=O)CNC(=O)[C@H](CCCNC(=N)N)NC(=O)CNC(=O)[C@H](N)CSSC[C@H](C(N)=O)NC1=O [LWX16, cGRGDd-DAgl-c] | 1 to 10 | 
N=C(N)NCCC[C@@H]1NC(=O)CNC(=O)[C@@H](N)CSSC[C@H](C(N)=O)NC(=O)[C@@H]2CC[C@H](c3ccccc3)N2C(=O)CN(CCC(=O)O)C(=O)[C@H](CC(=O)O)NC(=O)CNC1=O [LXW46, CGRGD-Nglu-Ppca-c] (H-CGRGD[N(CH2CH2COOH)Gly][Pro(5R-Ph)][dC]-NH2; disulfide 1-8) |  | > 20
CC(C)[C@H]1NC(=O)[C@@H](CC(=O)O)NC(=O)[C@H](CC(=O)O)NC(=O)CNC(=O)[C@H](CCCNC(=N)N)NC(=O)CNC(=O)[C@H](N)CSSC(C)(C)[C@H](C(N)=O)NC1=O [LXW21, cGRGDdv-DPen] (H-[dC]GRGD[dD][dV][dPen]-NH2; disulfide 1-8) | 1 to 10 | 
C#CC[C@H]1NC(=O)[C@@H](CC(=O)O)NC(=O)[C@H](CC(=O)O)NC(=O)CNC(=O)[C@H](CCCNC(=N)N)NC(=O)CNC(=O)[C@H](N)CSSC[C@H](C(N)=O)NC1=O [LWX17, cGRGDd-DPra-c] | 1 to 10 | 
CC(C)[C@H]1NC(=O)[C@@H](CC(=O)O)NC(=O)[C@H](CC(=O)O)NC(=O)CNC(=O)[C@H](CCCNC(=N)N)NC(=O)[C@@H](C)NC(=O)[C@H](N)CSSC[C@H](C(N)=O)NC1=O [LXW13, caRGDdvc] (H-[dC][dA]RGD[dD][dV][dC]-NH2; disulfide 1-8) | 1 to 10 | 
N=C(N)NCCC[C@@H]1NC(=O)CNC(=O)[C@@H](N)CSSC[C@H](C(N)=O)NC(=O)[C@@H]2CC[C@H](c3ccccc3)N2C(=O)[C@@H](CCC(=O)O)NC(=O)[C@H](CC(=O)O)NC(=O)CNC1=O [LXW45, CGRGDe-Ppca-c] (H-CGRGD[dE][Pro(5R-Ph)][dC]-NH2; disulfide 1-8) |  | > 20
CC[C@@H](C)[C@H]1NC(=O)[C@@H](CC(=O)O)NC(=O)[C@H](CC(=O)O)NC(=O)CNC(=O)[C@H](CCCNC(=N)N)NC(=O)CNC(=O)[C@H](N)CSSC[C@H](C(N)=O)NC1=O [LXW26, cGRGDdic] (H-[dC]GRGD[dD][dI][dC]-NH2; disulfide 1-8) | 1 to 10 | 
CC(C)[C@H]1NC(=O)[C@@H](CC(=O)O)NC(=O)[C@H](CC(=O)O)NC(=O)CNC(=O)[C@H](CCCNC(=N)N)NC(=O)CNC(=O)[C@H](N)C(C)(C)SSC(C)(C)[C@H](C(N)=O)NC1=O [LXW19, DPen-GRGDdv-DPen] (H-[dPen]GRGD[dD][dV][dPen]-NH2; disulfide 1-8) | 1 to 10 | 
CC(C)[C@H]1NC(=O)[C@@H](CC(=O)O)NC(=O)[C@H](CC(=O)O)NC(=O)CNC(=O)[C@H](CCCNC(=N)N)NC(=O)CCNC(=O)[C@H](N)CSSC[C@H](C(N)=O)NC1=O [LXW15, c-β-alanine-RGDdvc] (H-[dC][βAla]RGD[dD][dV][dC]-NH2; disulfide 1-8) | 1 to 10 | 
N=C(N)NCCC[C@@H]1NC(=O)CNC(=O)[C@H](N)CSSC[C@@H](C(N)=O)NC(=O)[C@@H](CC(=O)O)NC(=O)[C@@H](CO)NC(=O)[C@H](CC(=O)O)NC(=O)CNC1=O [LXW62, cGRGDsdC] (H-[dC]GRGD[dS][dD]C-NH2; disulfide 1-8) | > 10 | 

Reference: US9073974B2, “RGD-containing cyclic peptides” (The Regents of the University of California, priority 2009, dated 2015)
